Common to all, as to format: functional
The subject of test [1] is Neisseria gonorrhoeae. Description: Antimicrobial activity against Neisseria gonorrhoeae 65 isolate.
For test [2], the system named is Neisseria gonorrhoeae. As to the kind of experiment: Antimicrobial activity against Neisseria gonorrhoeae 253 isolate.
The subject of test [3] is Neisseria gonorrhoeae. As to the kind of experiment: Antimicrobial activity against Neisseria gonorrhoeae 188 isolate.
Test [4] has as its system Neisseria gonorrhoeae. As to the kind of experiment: Antimicrobial activity against Neisseria gonorrhoeae 82 isolate.
The subject of test [5] is Neisseria gonorrhoeae. Description: Antimicrobial activity against Neisseria gonorrhoeae 30 isolate.
Test [6] relates to Neisseria gonorrhoeae. As to the kind of experiment: Antimicrobial activity against Neisseria gonorrhoeae 128 isolate.
Test [7] has as its system Neisseria gonorrhoeae. Description: Antimicrobial activity against Neisseria gonorrhoeae 67 isolate.
Test [8] concerns Neisseria gonorrhoeae. Description: Antimicrobial activity against Neisseria gonorrhoeae 196 isolate.
Test [9] concerns Neisseria gonorrhoeae. As to the kind of experiment: Antimicrobial activity against Neisseria gonorrhoeae 201 isolate.
For test [10], the system named is Neisseria gonorrhoeae. As to the kind of experiment: Antimicrobial activity against Neisseria gonorrhoeae 158 isolate.
Test [11] concerns Neisseria gonorrhoeae. Description: Antimicrobial activity against Neisseria gonorrhoeae 64 isolate.
Test [12] has as its system Neisseria gonorrhoeae. As to the kind of experiment: Antimicrobial activity against Neisseria gonorrhoeae 273 isolate.
For test [13], the system named is Neisseria gonorrhoeae. As to the kind of experiment: Antimicrobial activity against Neisseria gonorrhoeae 119 isolate.
Test [14] concerns Neisseria gonorrhoeae. As to the kind of experiment: Antimicrobial activity against Neisseria gonorrhoeae 91 isolate.
For test [15], the system named is Neisseria gonorrhoeae. Description: Antimicrobial activity against Neisseria gonorrhoeae 90 isolate.
For test [16], the system named is Neisseria gonorrhoeae. Description: Antimicrobial activity against Neisseria gonorrhoeae 59 isolate.
For test [17], the system named is Neisseria gonorrhoeae. Description: Antimicrobial activity against Neisseria gonorrhoeae 35 isolate.

The values below come from ChEMBL document CHEMBL1145478, “Neisseria gonorrhoeae isolates with reduced susceptibility to cefixime and ceftriaxone: association with genetic polymorphisms in penA, mtrR, porB1b, and ponA” (2007).

SMILES strings stand for the structures. ≈ marks a conversion by molar mass, not a printed value.

For orientation: MIC means the smallest concentration in the dilution series that meets the test's criterion for growth inhibition. A low value points to greater potency. For `CC1(C)S[C@@H]2[C@H](NC(=O)Cc3ccccc3)C(=O)N2[C@H]1C(=O)O` [PENICILLIN G], the MIC in test [1] was 1.5 µg/mL (≈ 4.49 µM); in test [2], 1.5 µg/mL (≈ 4.49 µM); in test [3] it was 1 µg/mL (≈ 2.99 µM); in test [4], 6 µg/mL (≈ 17.9 µM); in [5], 3 µg/mL (≈ 8.97 µM); in test [6] it was 0.008 µg/mL (≈ 0.0239 µM). The minimal inhibitory concentration (MIC) in test [7] is 2 µg/mL (≈ 5.98 µM); in test [8], 1 µg/mL (≈ 2.99 µM); in test [9], 1 µg/mL (≈ 2.99 µM); in [10] it was 1.5 µg/mL (≈ 4.49 µM); in test [11], 2 µg/mL (≈ 5.98 µM); in test [12], 1.5 µg/mL (≈ 4.49 µM). Also, the minimal inhibitory concentration (MIC) in test [13] came to 0.012 µg/mL (≈ 0.0359 µM); in test [14], 6 µg/mL (≈ 17.9 µM); in test [15] it was 6 µg/mL (≈ 17.9 µM); in test [16], 6 µg/mL (≈ 17.9 µM); in [17], 2 µg/mL (≈ 5.98 µM).

On to `C=CC1=C(C(=O)O)N2C(=O)[C@@H](NC(=O)/C(=N\OCC(=O)O)c3csc(N)n3)[C@H]2SC1` [CEFIXIME], for which the MIC in test [1] was 0.25 µg/mL (≈ 0.551 µM); in test [2] it was 0.064 µg/mL (≈ 0.141 µM); in [3] it was 0.064 µg/mL (≈ 0.141 µM); in test [4], 0.38 µg/mL (≈ 0.838 µM); in [5] it was 0.25 µg/mL (≈ 0.551 µM); in [6], less than 0.016 µg/mL. Besides, the MIC in [7] is 0.25 µg/mL (≈ 0.551 µM); in test [8] it was 0.094 µg/mL (≈ 0.207 µM); in [9], 0.064 µg/mL (≈ 0.141 µM); in [10], 0.047 µg/mL (≈ 0.104 µM); in test [11], 0.25 µg/mL (≈ 0.551 µM); in test [12], 0.064 µg/mL (≈ 0.141 µM). For the same compound, the minimal inhibitory concentration (MIC) in [13] was less than 0.016 µg/mL; in test [14], 0.38 µg/mL (≈ 0.838 µM); in [15] it was 0.38 µg/mL (≈ 0.838 µM); in test [16] it was 0.25 µg/mL (≈ 0.551 µM); in test [17], 0.38 µg/mL (≈ 0.838 µM).

With `CO/N=C(\C(=O)N[C@@H]1C(=O)N2C(C(=O)O)=C(CSc3nc(=O)c(O)nn3C)CS[C@H]12)c1csc(N)n1` [CEFTRIAXONE], the minimal inhibitory concentration (MIC) in test [1] was 0.094 µg/mL (≈ 0.169 µM); in test [2] it was 0.064 µg/mL (≈ 0.115 µM); in test [3] it was 0.064 µg/mL (≈ 0.115 µM); in test [4], 0.125 µg/mL (≈ 0.225 µM); in [5], 0.094 µg/mL (≈ 0.169 µM); in [6] it was less than 0.002 µg/mL. The MIC was 0.094 µg/mL (≈ 0.169 µM) in [7]; 0.094 µg/mL (≈ 0.169 µM) in test [8]; 0.064 µg/mL (≈ 0.115 µM) in test [9]; 0.094 µg/mL (≈ 0.169 µM) in test [10]; 0.094 µg/mL (≈ 0.169 µM) in test [11]; 0.094 µg/mL (≈ 0.169 µM) in test [12]. Besides, the minimum inhibitory concentration (MIC) was less than 0.002 µg/mL in [13]; 0.125 µg/mL (≈ 0.225 µM) in [14]; 0.125 µg/mL (≈ 0.225 µM) in [15]; 0.094 µg/mL (≈ 0.169 µM) in [16]; 0.094 µg/mL (≈ 0.169 µM) in [17].
